System: not listed separately
Experiment: Stability in mouse liver microsomes
Format: in vitro ADME
Conditions: liver microsomes, pH 7.4, 0.5 mg/mL microsomal protein, 1.00 μM compound, NADPH, read-out: Half life T1/2, mouse liver microsomes
How it was run: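 Compound at 1.00 μM incubated at 37° C with 0.5 mg/mL liver microsomal protein and 2.00 mM NADPH in 100 mM phosphate buffer pH 7.4, sampled 0–60 min with acetonitrile quench. Parent remaining by LC-MS/MS; T½ from ln-remaining slope, CLint scaled by microsomal concentration and conversion factor.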
Molecule CC(C)N(C(=O)c1cc(F)ccc1Oc1nncnc1N1CC2(CCN(CC3CC4CCC3CC43CCC(=O)N3)CC2)C1)C(C)C (single isomer, unassigned) [Example 15-1a] has a half-life at 1 μM of 1.52 h. For CCN(C(=O)c1cc(F)ccc1Oc1cncnc1N1CC2(CCN(C[C@H]3CC[C@]4(CC3)CC(COC)(COC)C(=O)N4)CC2)C1)C(C)C [Example 17], the half-life at 1 μM was > 2 h. COCC1(COC)C[C@]2(CC[C@@H](CN3CCC4(CC3)CN(c3ncnnc3Oc3ccc(F)cc3C(=O)N(C(C)C)C(C)C)C4)CC2)NC1=O [Example 20] gave a half-life at 1 μM of 1.85 h. In the case of COC[C@H]1C[C@]2(CC[C@@H](CN3CCC4(CC3)CN(c3ncnnc3Oc3ccc(F)cc3C(=O)N(C(C)C)C(C)C)C4)CC2)NC1=O [Example 38-1], the half-life at 1 μM is reported as > 2 h. In the case of COC[C@@H]1C[C@]2(CC[C@@H](CN3CCC4(CC3)CN(c3ncnnc3Oc3ccc(F)cc3C(=O)N(C(C)C)C(C)C)C4)CC2)NC1=O [Example 38-2], the half-life at 1 μM is reported as 1.08 h.

System: not listed separately
Experiment: Pharmacokinetics test in mouse
Format: in vivo, ICR mice
Conditions: male, ICR, mouse, plasma, po, 10 mg/kg, mice, p.o. 10 mg/kg
How it was run: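 Fasted male ICR mice dosed with compound in saline with 1.5 eq HCl, 1 mg/kg i.v. or 10 mg/kg oral gavage (6 mice each). Plasma sampled 5 min–24 h, measured by LC-MS/MS; t½, Cmax, AUC, CL and F% by non-compartmental analysis, mean±SD.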
Molecule CC(C)N(C(=O)c1cc(F)ccc1Oc1nncnc1N1CC2(CCN(CC3CC4CCC3CC43CCC(=O)N3)CC2)C1)C(C)C (single isomer, unassigned) [Example 15-1a] has an AUC(0-t) of 6410 ng·h/mL and a half-life of 1.17 h. CCN(C(=O)c1cc(F)ccc1Oc1cncnc1N1CC2(CCN(C[C@H]3CC[C@]4(CC3)CC(COC)(COC)C(=O)N4)CC2)C1)C(C)C [Example 17] gave an AUC(0-t) of 3220 ng·h/mL and a half-life of 1.12 h. Work on COCC1(COC)C[C@]2(CC[C@@H](CN3CCC4(CC3)CN(c3ncnnc3Oc3ccc(F)cc3C(=O)N(C(C)C)C(C)C)C4)CC2)NC1=O [Example 20] yielded an AUC(0-t) of 2180 ng·h/mL and a half-life of 1.88 h. Work on COC[C@H]1C[C@]2(CC[C@@H](CN3CCC4(CC3)CN(c3ncnnc3Oc3ccc(F)cc3C(=O)N(C(C)C)C(C)C)C4)CC2)NC1=O [Example 38-1] yielded an AUC(0-t) of 5060 ng·h/mL and a half-life of 1.06 h. With COC[C@@H]1C[C@]2(CC[C@@H](CN3CCC4(CC3)CN(c3ncnnc3Oc3ccc(F)cc3C(=O)N(C(C)C)C(C)C)C4)CC2)NC1=O [Example 38-2] the AUC(0-t) was 1980 ng·h/mL and the half-life was 0.83 h.

Same assay, conditions: male, ICR, mouse, plasma, po, 10 mg/kg, mice, p.o. 10 mg/kg; read-out: Cmax
Work on CC(C)N(C(=O)c1cc(F)ccc1Oc1nncnc1N1CC2(CCN(CC3CC4CCC3CC43CCC(=O)N3)CC2)C1)C(C)C (single isomer, unassigned) [Example 15-1a] yielded a Cmax of 3030 ng/mL. CCN(C(=O)c1cc(F)ccc1Oc1cncnc1N1CC2(CCN(C[C@H]3CC[C@]4(CC3)CC(COC)(COC)C(=O)N4)CC2)C1)C(C)C [Example 17] gave a Cmax of 2120 ng/mL. With COCC1(COC)C[C@]2(CC[C@@H](CN3CCC4(CC3)CN(c3ncnnc3Oc3ccc(F)cc3C(=O)N(C(C)C)C(C)C)C4)CC2)NC1=O [Example 20] the Cmax was 919 ng/mL. COC[C@H]1C[C@]2(CC[C@@H](CN3CCC4(CC3)CN(c3ncnnc3Oc3ccc(F)cc3C(=O)N(C(C)C)C(C)C)C4)CC2)NC1=O [Example 38-1] gave a Cmax of 2260 ng/mL. Molecule COC[C@@H]1C[C@]2(CC[C@@H](CN3CCC4(CC3)CN(c3ncnnc3Oc3ccc(F)cc3C(=O)N(C(C)C)C(C)C)C4)CC2)NC1=O [Example 38-2] has a Cmax of 824 ng/mL.

Same assay, conditions: mice, p.o. 10 mg/kg; 1 mg/kg for intravenous injection
With CC(C)N(C(=O)c1cc(F)ccc1Oc1nncnc1N1CC2(CCN(CC3CC4CCC3CC43CCC(=O)N3)CC2)C1)C(C)C (single isomer, unassigned) [Example 15-1a] the “F, %” value was 60%. In the case of CCN(C(=O)c1cc(F)ccc1Oc1cncnc1N1CC2(CCN(C[C@H]3CC[C@]4(CC3)CC(COC)(COC)C(=O)N4)CC2)C1)C(C)C [Example 17], the “F, %” value is reported as 56%. For COCC1(COC)C[C@]2(CC[C@@H](CN3CCC4(CC3)CN(c3ncnnc3Oc3ccc(F)cc3C(=O)N(C(C)C)C(C)C)C4)CC2)NC1=O [Example 20], the “F, %” value was 84%. In the case of COC[C@H]1C[C@]2(CC[C@@H](CN3CCC4(CC3)CN(c3ncnnc3Oc3ccc(F)cc3C(=O)N(C(C)C)C(C)C)C4)CC2)NC1=O [Example 38-1], the “F, %” value is reported as 67%. With COC[C@@H]1C[C@]2(CC[C@@H](CN3CCC4(CC3)CN(c3ncnnc3Oc3ccc(F)cc3C(=O)N(C(C)C)C(C)C)C4)CC2)NC1=O [Example 38-2] the “F, %” value was 55%.

Biological target: hERG potassium ion channel (Homo sapiens (Human), UniProt Q12809)
Sequence (Q12809 whole entry): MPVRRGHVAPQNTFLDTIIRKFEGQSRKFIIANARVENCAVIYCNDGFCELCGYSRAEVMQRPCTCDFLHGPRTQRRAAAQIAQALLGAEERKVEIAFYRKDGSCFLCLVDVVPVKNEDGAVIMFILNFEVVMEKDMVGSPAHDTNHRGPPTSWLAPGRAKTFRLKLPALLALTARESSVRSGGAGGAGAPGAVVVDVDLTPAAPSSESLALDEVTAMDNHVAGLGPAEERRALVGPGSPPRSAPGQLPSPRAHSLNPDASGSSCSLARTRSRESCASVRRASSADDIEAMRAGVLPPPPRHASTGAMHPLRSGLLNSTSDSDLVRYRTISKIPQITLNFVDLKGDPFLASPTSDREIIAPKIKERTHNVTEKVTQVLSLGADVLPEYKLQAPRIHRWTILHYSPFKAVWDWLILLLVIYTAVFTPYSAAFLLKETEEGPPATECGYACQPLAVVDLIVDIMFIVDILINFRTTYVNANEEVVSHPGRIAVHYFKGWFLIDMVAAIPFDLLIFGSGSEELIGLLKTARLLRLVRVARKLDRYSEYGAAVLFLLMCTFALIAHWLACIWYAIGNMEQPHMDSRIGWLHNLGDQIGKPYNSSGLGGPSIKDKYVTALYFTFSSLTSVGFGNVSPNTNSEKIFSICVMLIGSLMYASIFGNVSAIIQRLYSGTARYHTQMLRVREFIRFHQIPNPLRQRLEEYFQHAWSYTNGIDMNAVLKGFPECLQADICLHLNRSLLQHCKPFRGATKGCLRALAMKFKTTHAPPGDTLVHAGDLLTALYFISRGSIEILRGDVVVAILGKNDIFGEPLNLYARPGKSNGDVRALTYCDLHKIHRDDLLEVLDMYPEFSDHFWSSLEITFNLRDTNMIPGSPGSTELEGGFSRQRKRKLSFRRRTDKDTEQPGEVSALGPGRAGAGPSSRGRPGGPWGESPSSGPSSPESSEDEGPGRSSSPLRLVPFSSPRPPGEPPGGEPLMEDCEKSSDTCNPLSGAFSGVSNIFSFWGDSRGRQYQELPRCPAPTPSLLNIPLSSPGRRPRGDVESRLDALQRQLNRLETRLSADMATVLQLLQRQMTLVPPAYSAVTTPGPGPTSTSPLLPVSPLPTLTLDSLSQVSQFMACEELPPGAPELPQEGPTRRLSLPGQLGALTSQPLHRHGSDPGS
Experiment: hERG potassium channel effect test (manual patch clamp, HEK293 cells overexpressing hERG)
Format: cell-based
Conditions: human, HEK293 cells overexpressing hERG potassium ion channels; 30 μm; read-out: Average inhibition rate of hERG current at the highest compound tested concentration
Description: Test Example 6: hERG Potassium Channel Effect Test
The hERG inhibition test was performed on some of the example compounds of the present disclosure using the manual electrophysiological patch clamp method. The cell line was derived from HEK293 cells that overexpressed hERG potassium ion channels. The specific experimental protocol was developed by PharmaCore Labs with reference to literature published in peer-reviewed journals and was performed by PharmaCore Labs in accordance with its standard experimental operating procedures. The highest test concentration was 30 μM.
COCC1(COC)C[C@]2(CC[C@@H](CN3CCC4(CC3)CN(c3ncnnc3Oc3ccc(F)cc3C(=O)N(C(C)C)C(C)C)C4)CC2)NC1=O [Example 20] gave an inhibition at 30 μM of 13.2%. COC[C@H]1C[C@]2(CC[C@@H](CN3CCC4(CC3)CN(c3ncnnc3Oc3ccc(F)cc3C(=O)N(C(C)C)C(C)C)C4)CC2)NC1=O [Example 38-1] gave an inhibition at 30 μM of 10.3%.

Same assay, conditions: manual patch clamp, highest test concentration 30 μM
With COCC1(COC)C[C@]2(CC[C@@H](CN3CCC4(CC3)CN(c3ncnnc3Oc3ccc(F)cc3C(=O)N(C(C)C)C(C)C)C4)CC2)NC1=O [Example 20] the IC50 was > 30 µM. In the case of COC[C@H]1C[C@]2(CC[C@@H](CN3CCC4(CC3)CN(c3ncnnc3Oc3ccc(F)cc3C(=O)N(C(C)C)C(C)C)C4)CC2)NC1=O [Example 38-1], the IC50 is reported as > 30 µM.
